According to patent publication US20060124903A1, “Aerosol preparation comprising sealed container and enclosed therein aerosol composition containing marcolide compound” (Astellas Pharma Inc., priority 2003, published 2006):

Key:
[1] = Content of tacrolimus solvable in liquefied hydrofluoroalkane; type: physicochemical; conditions: liquefied hydrofluoroalkane (HFA-134a, HFA-227)
[2] = Adsorptivity of tacrolimus to resinous material constituting valve part (FIG. 3); type: physicochemical
Source text: FIG. 3 illustrates the adsorptivity of the active ingredient contained in the aerosol composition to each sample resinous material soaked in the aerosol composition.
The axis of ordinates designates the ratio of (remaining) active ingredient in the aerosol composition to the initial active ingredient therein when the percentage of the initial active ingredient contained in the aerosol composition is 100%.
The aerosol composition used in the test of FIG. 3 contains a 0.025 wt % macrolide compound. To be concrete, the aerosol composition is a solution that contains 2.5 mg tacrolimus serving as the active ingredient, 10 ml liquefied hydrofluoroalkane (HFA-134a) serving as the propellant, and a little amount of lubricant normally used for metered dose inhalation.
In the test of FIG. 3, each of the sample resinous materials is formed into a circular shape having a 5 mm diameter (a 39 mm^2 surface area), similar to the form of first gasket 11. Each of the sample resinous materials is soaked in the aerosol composition solution under the condition of 75% relative humidity and 50° C. for a month. […]

Row | content of the tacrolimus solvable in the liquefied hydrofluoroalkane [1] | ratio of (remaining) active ingredient in the aerosol composition to the initial active ingredient [2] | Molecule
1 | not more than 0.15 wt % |  | C=CC[C@@H]1/C=C(\C)C[C@H](C)C[C@H](OC)[C@H]2O[C@@](O)(C(=O)C(=O)N3CCCC[C@H]3C(=O)O[C@H](/C(C)=C/[C@@H]3CC[C@@H](O)[C@H](OC)C3)[C@H](C)[C@@H](O)CC1=O)[C@H](C)C[C@@H]2OC [tacrolimus]
2 |  | scarcely reduced | polypropylene
3 |  | scarcely reduced | polyethylene
